# Experimental data taken from US10851073B2, “Protein tyrosine phosphatase inhibitors and methods of use thereof” (Calico Life Sciences LLC, priority 2019, dated 2020).
# How the values were obtained:
# [1] = system: B16F10 mouse melanoma cells; experiment: B16F10 IFNγ-induced cellular growth inhibition assay; assay type: cell-based; conditions: B16-F10, with 0.5 ng/mL IFNγ, read-out: B16F10 GI IC50
# Protocol: Example 229: B16F10 IFNγ-Induced Cellular Growth Inhibition Assay B16F10 mouse melanoma cells (ATCC Cat^# CRL-6475, Manassas, Va.) were seeded at a density of 500 cells per well in a 384-well clear bottom plate (Corning Cat^#3765, Corning, N.Y.) in 25 μL total volume of DMEM+10% FBS (Sigma Cat^# D6429 and Sigma Cat^# F4135, St. Louis, Mo.). Cells were allowed to adhere overnight at 37° C.+5% CO2. On the following day, 12.5 μL of mouse IFNγ (RD systems Cat^#485-MI/CF, Minneapolis, Minn.) was added to half of the plate (columns 13-24) at a concentration of 2 ng/mL for a final assay concentration of 0.5 ng/mL of IFNγ. Media only (12.5 μL of DMEM+10% FBS) was added to the remainder of the plate (columns 1-12). Next, compounds resuspended in DMSO (Sigma Cat^# D2650) at 100 mM were diluted in semi-log dilutions in DMSO ranging from 100 mM to 0.001 mM and DMSO only controls were included. The compound/DMSO dilutions were further diluted 1:250 in DMEM+10% FBS, and 12.5 μL of these dilutions were added in triplicates to cells of both treatment arms (with and without IFNγ). Final compound concentrations ranged from 100 μM to 0.001 μM with a final DMSO concentration of 0.1%. Compounds were only dosed in the inner 240 wells, avoiding the outer 2-well perimeter of the plate to minim/ze edge effects. Finally, the plate was loaded into an IncuCyte® S3 Live Cell Analysis System (Essen Bioscience-Sartorius, Ann Arbor, Mich.) maintained in a 37° C.+5% CO2 incubator, allowed to equilibrate for 2 hours, and imaged every 6 hours for 5 days. Confluence over time for compound dilutions in the presence and absence of IFNγ was measured. Growth inhibition values were obtained when the “DMSO/no IFNγ” control reached confluence >95%. At these time points, for each compound the percent growth inhibition at every compound dose level was calculated relative to the “DMSO/with IFNγ” control and used to determine the IC50.
# [2] = molecular target: T1, His tagged full-length PTPN1 protein (Homo sapiens, UniProt P18031); experiment: Mobility shift assay (MSA) used to determine potency of PTPN1 inhibitors; assay type: biochemical; conditions: enzyme 0.5 nM, substrate 2 μM
# T1 construct: made in house
# T1 sequence (P18031 with tags, fused parts or gaps): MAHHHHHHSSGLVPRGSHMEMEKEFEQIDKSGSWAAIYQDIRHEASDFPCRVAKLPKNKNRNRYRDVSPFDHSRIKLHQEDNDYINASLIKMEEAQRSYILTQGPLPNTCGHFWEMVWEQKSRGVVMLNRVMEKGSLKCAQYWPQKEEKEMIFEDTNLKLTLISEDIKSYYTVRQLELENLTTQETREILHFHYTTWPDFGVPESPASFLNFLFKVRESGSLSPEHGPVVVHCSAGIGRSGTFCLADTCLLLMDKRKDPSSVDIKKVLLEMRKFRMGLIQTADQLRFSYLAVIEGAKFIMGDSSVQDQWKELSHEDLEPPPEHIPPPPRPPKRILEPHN
# Protocol: Example 228: Mobility Shift Assay (MSA) Used to Determine Potency of PTPN1 Inhibitors
# Compound activity was determined using in house His tagged full-length PTPN1 protein (SEQ ID NO: 3) in an in vitro enzymatic reaction. The enzymatic assay used to determine activity is a mobility shift assay using a LabChip EZ Reader by Caliper Life Sciences. The enzymatic reaction was carried out in assay buffer (50 mM HEPES pH 7.5, 1 mM EGTA, 10 mM EDTA, 0.01% Tween® 20, and 2 mM DTT). The compounds were dispensed on a white 384 well ProxiPlate™ (PerkinElmer Cat^# 6008289) plate using a Labcyte Echo® liquid handler at varying concentrations (12 point, 1:3 dilution). The enzyme (at 0.5 nM) was incubated with compound for 10 minutes at room temperature. Then the substrate (phosphorylated insulin receptor probe sequence: ((OG488)-(NH—CH2—CH2—O—CH2—CH2—O—CH2—CO)-T-R-D-I-(PY)-E-T-D-Y-Y-R-K-K-NH2) (SEQ ID NO: 2) was added at 2 μM to the plates and incubated for another 10 minutes at room temperature. Finally, a quench solution (water and 4-bromo-3-(2-oxo-2-propoxyethoxy)-5-(3-{[1-(phenylmethanesulfonyl)piperidin-4-yl]amino}phenyl)thiophene-2-carboxylic acid) was added to the plates, which were then run on the EZ Reader (excitation 488 nm, emission 530 nm) to measure % conversion (the amount of phosphorylated substrate which was de-phosphorylated by PTPN1). […] The % inhibition was then used to calculate the IC50 values.
# [3] = molecular target: T2, His tagged PTPN2 (TC45) protein (Homo sapiens, UniProt P17706); experiment: Mobility shift assay used to determine potency of PTPN2 inhibitors; assay type: biochemical; conditions: enzyme 0.5 nM, substrate 2 μM; read-out: PTPN2 MSA IC50
# T2 construct: made in house
# T2 sequence (P17706 with tags, fused parts or gaps isoform P17706-2): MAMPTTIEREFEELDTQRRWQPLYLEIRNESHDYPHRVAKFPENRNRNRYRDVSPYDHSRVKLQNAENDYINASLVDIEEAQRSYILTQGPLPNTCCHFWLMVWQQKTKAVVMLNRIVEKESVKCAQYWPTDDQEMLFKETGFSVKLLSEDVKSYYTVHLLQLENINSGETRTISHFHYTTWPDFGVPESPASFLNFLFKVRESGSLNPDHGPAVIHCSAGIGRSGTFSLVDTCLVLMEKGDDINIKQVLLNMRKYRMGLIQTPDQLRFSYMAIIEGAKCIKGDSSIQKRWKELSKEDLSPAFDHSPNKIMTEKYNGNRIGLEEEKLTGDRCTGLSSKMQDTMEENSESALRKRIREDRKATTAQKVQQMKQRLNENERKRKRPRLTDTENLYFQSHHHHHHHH
# Summary of the method: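 Enzyme (0.5 nM) preincubated with compound (12-point, 1:3 dilution) 10 min at room temperature in 50 mM HEPES pH 7.5, 1 mM EGTA, 10 mM EDTA, 0.01% Tween 20, 2 mM DTT; OG488-labelled phospho-insulin-receptor peptide substrate (2 μM) added for 10 min, then quenched. Microfluidic mobility shift (ex 488/em 530 nm) gave % conversion; IC50 from % inhibition.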
SMILES,IC50 [1] [nM],IC50 [2] [nM],IC50 [3] [nM]
"C[Si](C)(O)CCCNC1CCc2cc(O)c(N3CC(=O)NS3(=O)=O)c(F)c2C1 (centres unmarked) [Compound 190, 5-[1-fluoro-3-hydroxy-7-({3-[hydroxy(dimethyl)silyl]propyl}amino)-5,6,7,8-tetrahydronaphthalen-2-yl]-1λ^6,2,5-thiadiazolidine-1,1,3-trione]",1000 to 10000,10 to 100,1 to 10
"O=C1CN(c2c(O)cc3c(c2F)CC(NCC(O)CC(F)(F)F)CC3)S(=O)(=O)N1 (centres unmarked) [Compound 156, 5-{1-fluoro-3-hydroxy-7-[(4,4,4-trifluoro-2-hydroxybutyl)amino]-5,6,7,8-tetrahydronaphthalen-2-yl}-1λ^6,2,5-thiadiazolidine-1,1,3-trione]",< 1000,1 to 10,1 to 10
"O=C1CN(c2c(O)cc3c(c2F)CC(NCCC2CCCC2)CC3)S(=O)(=O)N1 (centres unmarked) [Compound 178, 5-{7-[(2-cyclopentylethyl)amino]-1-fluoro-3-hydroxy-5,6,7,8-tetrahydronaphthalen-2-yl}-1λ^6,2,5-thiadiazolidine-1,1,3-trione]",< 1000,1 to 10,< 1
"O=C1CN(c2c(O)cc3c(c2F)C[C@@H]([C@@H]2CCNC2)CC3)S(=O)(=O)N1 (single isomer, unassigned) [Compound 136, 5-{(7RS)-1-fluoro-3-hydroxy-7-[(3RS)-pyrrolidin-3-yl]-5,6,7,8-tetrahydronaphthalen-2-yl}-1λ^6,2,5-thiadiazolidine-1,1,3-trione]",> 100000,10 to 100,10 to 100
"O=C1CN(c2c(O)cc3c(c2F)CC(NCCC2CCCCC2)CC3)S(=O)(=O)N1 (centres unmarked) [Compound 173, 5-{7-[(2-cyclohexylethyl)amino]-1-fluoro-3-hydroxy-5,6,7,8-tetrahydronaphthalen-2-yl}-1λ^6,2,5-thiadiazolidine-1,1,3-trione]",< 1000,1 to 10,1 to 10
"CC(C)CCOC1CCc2c(cc(O)c(N3CC(=O)NS3(=O)=O)c2F)C1 (centres unmarked) [Compound 314, 5-[1-fluoro-3-hydroxy-6-(3-methylbutoxy)-5,6,7,8-tetrahydronaphthalen-2-yl]-1λ^6,2,5-thiadiazolidine-1,1,3-trione]",–,> 100,10 to 100
"O=C1CN(c2c(O)cc3c(c2F)CN(CC2CC4CCC2O4)CC3)S(=O)(=O)N1 (centres unmarked) [Compound 222, 5-{8-fluoro-6-hydroxy-2-[(7-oxabicyclo[2.2.1]heptan-2-yl)methyl]-1,2,3,4-tetrahydroisoquinolin-7-yl}-1λ^6,2,5-thiadiazolidine-1,1,3-trione]",–,10 to 100,10 to 100
"O=C1CN(c2c(O)cc3c(c2F)CCC(NCCCC(F)F)C3)S(=O)(=O)N1 (centres unmarked) [Compound 311, 5-{6-[(4,4-difluorobutyl)amino]-1-fluoro-3-hydroxy-5,6,7,8-tetrahydronaphthalen-2-yl}-1λ^6,2,5-thiadiazolidine-1,1,3-trione]",–,1 to 10,1 to 10
"O=C1CN(c2c(O)cc3c(c2F)CC(OC(=O)Nc2ccccc2)CC3)S(=O)(=O)N1 (centres unmarked) [Compound 149, 8-fluoro-6-hydroxy-7-(1,1,4-trioxo-1λ^6,2,5-thiadiazolidin-2-yl)-1,2,3,4-tetrahydronaphthalen-2-yl Phenylcarbamate]",–,10 to 100,1 to 10
"CC(C)CNCC1Cc2cc(O)c(N3CC(=O)NS3(=O)=O)c(F)c2C1 (centres unmarked) [Compound 275, 5-(4-fluoro-6-hydroxy-2-{[(2-methylpropyl)amino]methyl}-2,3-dihydro-1H-inden-5-yl)-1λ^6,2,5-thiadiazolidine-1,1,3-trione]",–,10 to 100,10 to 100

# Second part, led by results:
IC50 [1] [nM],IC50 [2] [nM],SMILES,IC50 [3] [nM]
1000 to 10000,1 to 10,"O=C1CN(c2c(O)cc3c(c2F)CC(OCC2CC(F)(F)C2)CC3)S(=O)(=O)N1 (centres unmarked) [Compound 119, 5-{7-[(3,3-difluorocyclobutyl)methoxy]-1-fluoro-3-hydroxy-5,6,7,8-tetrahydronaphthalen-2-yl}-1λ^6,2,5-thiadiazolidine-1,1,3-trione]",1 to 10
10000 to 100000,10 to 100,"CO[C@H]1CCc2cc(O)c(N3CC(=O)NS3(=O)=O)c(F)c2C1 (single isomer, unassigned) [Compound 109]",10 to 100
1000 to 10000,10 to 100,"CC(C)CCN[C@H]1CCc2cc(O)c(N3CC(=O)NS3(=O)=O)c(F)c2C1 (single isomer, unassigned) [Compound 117]",10 to 100
10000 to 100000,10 to 100,"O=C1CN(c2c(O)cc3c(c2F)CC(OCC2CC2)CC3)S(=O)(=O)N1 (centres unmarked) [Compound 107, 5-[7-(cyclopropylmethoxy)-1-fluoro-3-hydroxy-5,6,7,8-tetrahydronaphthalen-2-yl]-1λ^6,2,5-thiadiazolidine-1,1,3-trione]",10 to 100
10000 to 100000,10 to 100,"COCCOC1CCc2cc(O)c(N3CC(=O)NS3(=O)=O)c(F)c2C1 (centres unmarked) [Compound 106, 5-[1-fluoro-3-hydroxy-7-(2-methoxyethoxy)-5,6,7,8-tetrahydronaphthalen-2-yl]-1λ^6,2,5-thiadiazolidine-1,1,3-trione]",10 to 100
–,10 to 100,"O=C1CN(c2c(O)cc3c(c2F)C[C@@H]([C@H]2CCNC2)CC3)S(=O)(=O)N1 (single isomer, unassigned) [Compound 138, 5-{(7RS)-1-fluoro-3-hydroxy-7-[(3SR)-pyrrolidin-3-yl]-5,6,7,8-tetrahydronaphthalen-2-yl}-1λ^6,2,5-thiadiazolidine-1,1,3-trione]",10 to 100
–,1 to 10,"O=C1CN(c2c(O)cc3c(c2F)CC(CCC2CC2)CC3)S(=O)(=O)N1 (centres unmarked) [Compound 105, 5-[7-(2-cyclopropylethyl)-1-fluoro-3-hydroxy-5,6,7,8-tetrahydronaphthalen-2-yl]-1λ^6,2,5-thiadiazolidine-1,1,3-trione]",1 to 10
